Experiment [1] deals with carbapenemase producing K. pneumoniae. The experiment can be described thus: MIC by broth micro-dilution (CLSI), carbapenemase producing K. pneumoniae. The format is cell-based, Klebsiella pneumoniae. The conditions noted are these: Klebsiella pneumoniae, ATCCBAA1705, KPC-2 K. pneumoniae ATCC BAA-1705; read-out: MIC.
Experiment [2] concerns methicillin-sensitive Staphylococcus aureus. The experiment can be described thus: MIC by broth micro-dilution (CLSI), methicillin-sensitive S. aureus. It is filed as cell-based. The note with it: Staphylococcus aureus, ATCC 29213 / MSSA, MSSA S. aureus ATCC29213; read-out: MIC. On the technique in general: Broth dilution looks for growth in wells or tubes with falling amounts of substance.

Experiment [3] has as its system carbapenem sensitive Escherichia coli. The experiment is described as follows: MIC by broth micro-dilution (CLSI), carbapenem sensitive E. coli. The format is cell-based. The conditions noted are these: Escherichia coli, ATCC25922, ESBL −ve E. coli ATCC25922; read-out: MIC.
Experiment [4] has as its system extended spectrum β lactamase (ESBL) SHV18 producing Klebsiella pneumoniae. The experiment can be described thus: MIC by broth micro-dilution (CLSI), ESBL SHV18 producing K. pneumoniae. The format is cell-based. The note with it: Klebsiella pneumoniae, ATCC700603, 22 h, ESBL +ve (SHV-18) K. pneumoniae ATCC700603; read-out: MIC.
Experiment [5] concerns carbapenem sensitive Pseudomonas aeruginosa. The experiment can be described thus: MIC by broth micro-dilution (CLSI), carbapenem sensitive P. aeruginosa. The format is cell-based. The conditions noted are these: Pseudomonas aeruginosa, ATCC27853, Meropenem susceptible P. aeruginosa ATCC27853; read-out: MIC.

In brackets after ≈: the same amount, converted by molar mass.

As a reminder, the MIC is the smallest concentration in the dilution series that meets the test's criterion for growth inhibition. Consider `C[C@@H](NC(=O)C(F)F)[C@H]1C(=O)N2C(C(=O)O)=C(S[C@@H]3CN[C@H](C(=O)N4CCNC[C@@H]4C)C3)[C@H](C)[C@H]12` [Example 161], for which the MIC was determined as 4 µg/mL (≈ 7.76 µM) in experiment [1]; 0.5 µg/mL (≈ 0.97 µM) in experiment [2]; 0.5 µg/mL (≈ 0.97 µM) in experiment [3]; 8 µg/mL (≈ 15.5 µM) in experiment [4]; 8 µg/mL (≈ 15.5 µM) in experiment [5].

`C[C@@H](NC(=O)CN(C)C=N)[C@H]1C(=O)N2C(C(=O)O)=C(S[C@@H]3CN[C@H](C(=O)N4CC[C@@H](N)C4)C3)[C@H](C)[C@H]12` [Example 229]: the MIC was determined as 64 µg/mL (≈ 123 µM) in experiment [1]; 128 µg/mL (≈ 245 µM) in experiment [2]; 16 µg/mL (≈ 30.7 µM) in experiment [3]; 64 µg/mL (≈ 123 µM) in experiment [4]; 32 µg/mL (≈ 61.3 µM) in experiment [5].

Consider `CNCC(=O)N[C@H](C)[C@H]1C(=O)N2C(C(=O)O)=C(S[C@@H]3CN[C@H](CNS(N)(=O)=O)C3)[C@H](C)[C@H]12` [Example 169], for which the MIC in experiment [1] is 2 µg/mL (≈ 4.08 µM); in experiment [2], 8 µg/mL (≈ 16.3 µM); in experiment [3] it was 1 µg/mL (≈ 2.04 µM); in experiment [4] it was 16 µg/mL (≈ 32.6 µM); in experiment [5], 4 µg/mL (≈ 8.15 µM).

With `C[C@@H](NC(=O)[C@@H]1CCCN1)[C@H]1C(=O)N2C(C(=O)O)=C(S[C@@H]3CN[C@H](C(=O)N(C)C)C3)[C@H](C)[C@H]12` [Example 228], the MIC in experiment [1] worked out at 8 µg/mL (≈ 16.7 µM); in experiment [2] it was 64 µg/mL (≈ 133 µM); in experiment [3], 1 µg/mL (≈ 2.09 µM); in experiment [4] it was 4 µg/mL (≈ 8.34 µM); in experiment [5] it was 64 µg/mL (≈ 133 µM).

Take `CC(C)OC(=O)C(=O)N[C@H](C)[C@H]1C(=O)N2C(C(=O)O)=C(S[C@@H]3CN[C@H](C(=O)N(C)C)C3)[C@H](C)[C@H]12` [Example 73]: the MIC is 8 µg/mL (≈ 16.1 µM) in experiment [1]; 4 µg/mL (≈ 8.05 µM) in experiment [2]; 1 to 2 µg/mL (≈ 2.01 to 4.03 µM) in experiment [3]; 4 µg/mL (≈ 8.05 µM) in experiment [4]; 4 to 16 µg/mL (≈ 8.05 to 32.2 µM) in experiment [5].

For `C[C@@H](NC(=O)CN(C)C(=N)N)[C@H]1C(=O)N2C(C(=O)O)=C(S[C@@H]3CN[C@H](C(=O)N(C)C)C3)[C@H](C)[C@H]12` [Example 231], the MIC is 2 µg/mL (≈ 4.04 µM) in experiment [1]; 32 µg/mL (≈ 64.6 µM) in experiment [2]; 1 µg/mL (≈ 2.02 µM) in experiment [3]; 4 µg/mL (≈ 8.07 µM) in experiment [4]; 16 µg/mL (≈ 32.3 µM) in experiment [5].

For `C[C@@H](NC(=O)C(F)F)[C@H]1C(=O)N2C(C(=O)O)=C(S[C@@H]3CN[C@H](C(=O)N4CCC(F)(F)CC4)C3)[C@H](C)[C@H]12` [Example 76], the MIC is 8 µg/mL (≈ 14.9 µM) in experiment [1]; 2 µg/mL (≈ 3.73 µM) in experiment [2]; 1 µg/mL (≈ 1.86 µM) in experiment [3]; 8 µg/mL (≈ 14.9 µM) in experiment [4]; more than 128 µg/mL in experiment [5].

As for `C[C@@H](NC(=O)C(F)F)[C@H]1C(=O)N2C(C(=O)O)=C(S[C@@H]3CN[C@H](C(=O)N4CCCNCC4)C3)[C@H](C)[C@H]12` [Example 162], the MIC was 4 µg/mL (≈ 7.76 µM) in experiment [1]; 1 µg/mL (≈ 1.94 µM) in experiment [2]; 0.5 µg/mL (≈ 0.97 µM) in experiment [3]; 4 µg/mL (≈ 7.76 µM) in experiment [4]; 16 µg/mL (≈ 31 µM) in experiment [5].

Regarding `C[C@@H](NC(=O)C(F)F)[C@H]1C(=O)N2C(C(=O)O)=C(S[C@@H]3CN[C@H](C(=O)N4CC[C@H](NCC#N)C4)C3)[C@H](C)[C@H]12` [Example 175], the MIC in experiment [1] is 4 µg/mL (≈ 7.4 µM); in experiment [2] it was 2 µg/mL (≈ 3.7 µM); in experiment [3] it was 1 µg/mL (≈ 1.85 µM); in experiment [4] it was 2 µg/mL (≈ 3.7 µM); in experiment [5] it was 16 µg/mL (≈ 29.6 µM).

As for `C[C@@H](NC(=O)C(F)F)[C@H]1C(=O)N2C(C(=O)O)=C(S[C@@H]3CN[C@H](C(=O)N4C[C@@H](O)[C@@H](N)C4)C3)[C@H](C)[C@H]12` [Example 213], the MIC worked out at 4 µg/mL (≈ 7.73 µM) in experiment [1]; 1 µg/mL (≈ 1.93 µM) in experiment [2]; 0.5 µg/mL (≈ 0.966 µM) in experiment [3]; 2 µg/mL (≈ 3.86 µM) in experiment [4]; 8 µg/mL (≈ 15.5 µM) in experiment [5].

Take `C[C@@H](NS(=O)(=O)CCN)[C@H]1C(=O)N2C(C(=O)O)=C(S[C@@H]3CN[C@H](C(=O)N(C)C)C3)[C@H](C)[C@H]12` [Example 136]: the MIC is 16 µg/mL (≈ 32.7 µM) in experiment [1]; more than 128 µg/mL in experiment [2]; 4 µg/mL (≈ 8.17 µM) in experiment [3]; 16 µg/mL (≈ 32.7 µM) in experiment [4]; 32 µg/mL (≈ 65.4 µM) in experiment [5].

Consider `CNCC(=O)N[C@H](C)[C@H]1C(=O)N2C(C(=O)O)=C(S[C@@H]3CN[C@H](C(=O)N(C)C)C3)[C@H](C)[C@H]12` [Example 112], for which the MIC is 4 µg/mL (≈ 8.82 µM) in experiment [1]; 64 µg/mL (≈ 141 µM) in experiment [2]; 2 µg/mL (≈ 4.41 µM) in experiment [3]; 4 µg/mL (≈ 8.82 µM) in experiment [4]; 8 µg/mL (≈ 17.6 µM) in experiment [5].

Regarding `C[C@@H](NC(=O)[C@@H]1CCCN1)[C@H]1C(=O)N2C(C(=O)O)=C(S[C@@H]3CN[C@H](CNS(N)(=O)=O)C3)[C@H](C)[C@H]12` [Example 225], the minimal inhibitory concentration (MIC) in experiment [1] came out at 2 µg/mL (≈ 3.87 µM); in experiment [2], 16 µg/mL (≈ 31 µM); in experiment [3], 1 µg/mL (≈ 1.94 µM); in experiment [4] it was 32 µg/mL (≈ 61.9 µM); in experiment [5] it was 64 µg/mL (≈ 124 µM).

In the case of `C[C@@H](NC(=O)C(F)F)[C@H]1C(=O)N2C(C(=O)O)=C(S[C@@H]3CN[C@H](C(=O)N4C[C@@H](N)C[C@H]4CN)C3)[C@H](C)[C@H]12` [Example 183], the MIC stood at 16 µg/mL (≈ 30.2 µM) in experiment [1]; 8 µg/mL (≈ 15.1 µM) in experiment [2]; 2 µg/mL (≈ 3.77 µM) in experiment [3]; 32 µg/mL (≈ 60.3 µM) in experiment [4]; 64 µg/mL (≈ 121 µM) in experiment [5].

For the compound `C[C@@H](NC(=O)[C@H]1CCCN1)[C@H]1C(=O)N2C(C(=O)O)=C(S[C@@H]3CN[C@H](CNS(N)(=O)=O)C3)[C@H](C)[C@H]12` [Example 226], the MIC in experiment [1] worked out at 8 µg/mL (≈ 15.5 µM); in experiment [2] it was 32 µg/mL (≈ 61.9 µM); in experiment [3], 1 µg/mL (≈ 1.94 µM); in experiment [4] it was 32 µg/mL (≈ 61.9 µM); in experiment [5] it was 64 µg/mL (≈ 124 µM).

On to `C[C@@H](NS(C)(=O)=O)[C@H]1C(=O)N2C(C(=O)O)=C(S[C@@H]3CN[C@H](C(=O)N4CC[N+](C)(CC(N)=O)CC4)C3)[C@H](C)[C@H]12` [Example 39], for which the MIC came out at 16 µg/mL in experiment [1]; 16 µg/mL in experiment [2]; 4 µg/mL in experiment [3]; 16 µg/mL in experiment [4]; 16 µg/mL in experiment [5].

In the case of `C[C@@H](NC(=O)C(F)F)[C@H]1C(=O)N2C(C(=O)O)=C(S[C@@H]3CN[C@H](C(=O)N4CC[C@@H](NCC(N)=O)C4)C3)[C@H](C)[C@H]12` [Example 154], the MIC came to 8 µg/mL (≈ 14.3 µM) in experiment [1]; 4 µg/mL (≈ 7.16 µM) in experiment [2]; 1 µg/mL (≈ 1.79 µM) in experiment [3]; 2 µg/mL (≈ 3.58 µM) in experiment [4]; 64 µg/mL (≈ 115 µM) in experiment [5].

For the compound `CNCC(=O)N[C@H](C)[C@H]1C(=O)N2C(C(=O)O)=C(S[C@@H]3CN[C@H](C(=O)N(CCN)CCO)C3)[C@H](C)[C@H]12` [Example 202], the MIC stood at 16 µg/mL (≈ 31.2 µM) in experiment [1]; 64 µg/mL (≈ 125 µM) in experiment [2]; 4 µg/mL (≈ 7.8 µM) in experiment [3]; 64 µg/mL (≈ 125 µM) in experiment [4]; 8 µg/mL (≈ 15.6 µM) in experiment [5].

In the case of `C[C@@H](NC(=O)[C@@H](N)Cc1ccccc1)[C@H]1C(=O)N2C(C(=O)O)=C(S[C@@H]3CN[C@H](C(=O)N(C)C)C3)[C@H](C)[C@H]12` [Example 71], the MIC is 64 µg/mL (≈ 121 µM) in experiment [1]; 8 µg/mL (≈ 15.1 µM) in experiment [2]; 16 µg/mL (≈ 30.2 µM) in experiment [3]; 128 µg/mL (≈ 242 µM) in experiment [4]; more than 128 µg/mL in experiment [5].

`C[C@@H](NC(=O)C(F)F)[C@H]1C(=O)N2C(C(=O)O)=C(S[C@@H]3CN[C@H](C(=O)N(C)CCC(=O)N4CC[C@H](N)C4)C3)[C@H](C)[C@H]12` [Example 173]: the MIC in experiment [1] turned out to be 8 µg/mL (≈ 13.6 µM); in experiment [2], 4 µg/mL (≈ 6.82 µM); in experiment [3] it was 2 µg/mL (≈ 3.41 µM); in experiment [4], 16 µg/mL (≈ 27.3 µM); in experiment [5], 16 µg/mL (≈ 27.3 µM).
